{"source": "patent US20250109127A1", "about": "“METHODS OF USE OF PHENOXYPROPYLAMINE COMPOUNDS TO TREAT DEPRESSION” (Minerva Neurosciences, Inc., priority 2013, published 2025)", "system": "5-HT release in the rat prefrontal cortex", "assay": "Microdialysis: 5-HT release in prefrontal cortex after I.P. administration", "assay_type": "in vivo", "settings": "for 5-HT in dialysate, MEAN / 5-HT in dialysate, individual animals: Citalopram 10 mg/kg I.P.", "protocol": "The aim of the study was to evaluate, using microdialysis, the effects of an intraperitoneal (I.P.) administration in rats of three different doses of SON-117 on dopamine and its metabolites, serotonin and its metabolite (5-HIAA), and norepinephrine levels in prefrontal cortex.\nThirty-two adult male Wistar rats were used for the whole study (4 groups of eight animals planned for the study, Table 1).\nSurgery was performed on rats weighing about 300 g at the beginning of the experiments. Rats were anaesthetized with Ketamine (50 mg/kg) & Xylazine (15 mg/kg) by intramuscular administration. The animals were placed in a stereotaxic apparatus in the flat-skull position at a constant setting of −3.3 mm between ear bars and the incisor bar. The animals were treated with a local anesthesic (xylocaine 1%, Astra Zeneca) and an analgesic (Temgesic, from Schering Plough, 0.05 mg/kg, s.c.). A rostrocaudal midline incision was made with a lancet to expose the dorsal skull surface. The “stereotaxic zero” was defined by the Bregma in accordance with Paxinos and Watson's atlas (1986). A hole was drilled in the skull with a drill and the meninges were pierced with a sterile needle to implant a CMA12 guide cannula which later received the dialysis probe.\nCoordinates used for implanting guide cannula in prefrontal cortex from Bregma were anteroposterior 3.7 mm, mediolateral 0.8 mm, and dorsoventral −2 mm (top of the probe was at −5 mm). The guide cannula was fixed to the skull with two stainless steel screws (1.88 mm outside diameter) anchored. An application of dental cement was added. A plastic collar allowed each animal to be tethered to a Swivel assembly of the CMA 120 awake animal system. Following surgery, rats were kept in individual cages and allowed to recover for a minimum of 3-5 days before the experimentation. The rats were handled and put in plastic bowl for 10 min at least every day to habituate the animals to their new environment for the dialysis. An I.P. administration with saline was also performed every day.\nDialysis probes (CMA12/3 mm, membrane, 20 kD cut-off, Carnegie Medicine, Stockholm, Sweden), were carefully washed before inserting into the guide cannula. The wash was performed with the artificial cerebrospinal fluid (aCSF) medium (NaCl 147 mM, KCl 2.7 mM, CaCl2 1.2 mM, MgCl2 0.85 mM) at room temperature. The dialysis system was then equilibrated at 20° C. at a perfusion rate of 1 μl/min with a Carnegie pump (CMA100). All catheters (FEP tubing, internal volume of 1.2 μl/10 cm, and tubing adaptors) used for microdialysis were treated in the same conditions.\nThe probes duly prepared were inserted into the guide cannula and the CMA120 Swivel assembly secured to the animal using a plastic collar. Flow through the dialysis probe with aCSF was maintained at a rate of 1 μl/min during the whole experimentation. The first four fractions (corresponding to 2 hours) were discarded to avoid the effects of parenchymal disturbance and to ensure that an approximate steady-state level was reached. Fractions were then collected over a period of 8.5 h during which time the animals remained quiet. The dialysates were automatically collected with an autosampler (microfraction collector CMA 140, Carnegie Medicin) and stored at −80° C. until analysis. […] Perfusion was then maintained for 7 hours with aCSF. The dialysates (30 μl) were collected into 300 μl vials, transferred into dry ice and then kept frozen (−80° C.) until analysis. Frozen samples were shipped to a partner for analysis. At the end of the microdialysis study, a PBS with colored ink was perfused through the probe in order to visualize the dialyzed area.\nCatecholamine assay: Concentrations of dopamine, DOPAC, HVA, 5-HIAA, 5-HT, and norepinephrin were determined for each sample by HPLC coupled with electrochemical detection. […]", "note": "Values joined by “and” are separate entries in the source; they are usually repeats but may differ in a detail not shown here. Identical values can stand only once.", "data": [{"smiles": "CN(C)CCCC1(c2ccc(F)cc2)OCc2cc(C#N)ccc21", "note": "(centres unmarked) [Citalopram, citalopram, reference compound]", "values": [{"measurement": "5-HT in dialysate, MEAN", "setting": "T0-T30 min", "result": "85.23 % of respective basal"}, {"measurement": "5-HT in dialysate, MEAN", "setting": "T30-T1 h", "result": "218.92 % of respective basal"}, {"measurement": "5-HT in dialysate, individual animals", "setting": "T30-T1 h", "result": "203.59 % of respective basal and 157.98 % of respective basal and 133.67 % of respective basal and 139.45 % of respective basal and 219.64 % of respective basal and 344.10 % of respective basal and 285.92 % of respective basal and 267.00 % of respective basal"}, {"measurement": "5-HT in dialysate, MEAN", "setting": "T1 h 30-T2 h", "result": "170.67 % of respective basal"}, {"measurement": "5-HT in dialysate, individual animals", "setting": "T1 h 30-T2 h", "result": "103.23 % of respective basal and 101.96 % of respective basal and 153.81 % of respective basal and 83.91 % of respective basal and 207.6 % of respective basal and 351.79 % of respective basal and 164.94 % of respective basal and 198.14 % of respective basal"}, {"measurement": "5-HT in dialysate, MEAN", "setting": "T1 h-T1 h 30", "result": "171.48 % of respective basal"}, {"measurement": "5-HT in dialysate, individual animals", "setting": "T1 h-T1 h 30", "result": "162.56 % of respective basal and 151.29 % of respective basal and 167.46 % of respective basal and 128.56 % of respective basal and 232.85 % of respective basal and 235.03 % of respective basal and 158.66 % of respective basal and 135.42 % of respective basal"}, {"measurement": "5-HT in dialysate, MEAN", "setting": "T2 h 30-T3 h", "result": "116.57 % of respective basal"}, {"measurement": "5-HT in dialysate, individual animals", "setting": "T2 h 30-T3 h", "result": "109.55 % of respective basal and 38.11 % of respective basal and 79.68 % of respective basal and 57.89 % of respective basal and 152.73 % of respective basal and 299.86 % of respective basal and 89.94 % of respective basal and 104.76 % of respective basal"}, {"measurement": "5-HT in dialysate, MEAN", "setting": "T2 h-T2 h 30", "result": "138.70 % of respective basal"}, {"measurement": "5-HT in dialysate, individual animals", "setting": "T2 h-T2 h 30", "result": "97.34 % of respective basal and 43.80 % of respective basal and 100.91 % of respective basal and 83.82 % of respective basal and 153.02 % of respective basal and 315.50 % of respective basal and 215.03 % of respective basal and 100.89 % of respective basal"}, {"measurement": "5-HT in dialysate, MEAN", "setting": "T3 h 30-T4 h", "result": "126.49 % of respective basal"}, {"measurement": "5-HT in dialysate, individual animals", "setting": "T3 h 30-T4 h", "result": "93.89 % of respective basal and 20.30 % of respective basal and 84.02 % of respective basal and 59.96 % of respective basal and 97.06 % of respective basal and 476.98 % of respective basal and 67.07 % of respective basal and 112.62 % of respective basal"}, {"measurement": "5-HT in dialysate, MEAN", "setting": "T3 h-T3 h 30", "result": "136.30 % of respective basal"}, {"measurement": "5-HT in dialysate, individual animals", "setting": "T3 h-T3 h 30", "result": "88.23 % of respective basal and 47.91 % of respective basal and 85.22 % of respective basal and 48.54 % of respective basal and 108.35 % of respective basal and 516.29 % of respective basal and 70.00 % of respective basal and 125.89 % of respective basal"}, {"measurement": "5-HT in dialysate, MEAN", "setting": "T4 h 30-T5 h", "result": "90.86 % of respective basal"}, {"measurement": "5-HT in dialysate, individual animals", "setting": "T4 h 30-T5 h", "result": "89.09 % of respective basal and 13.90 % of respective basal and 77.20 % of respective basal and 44.62 % of respective basal and 120.70 % of respective basal and 212.73 % of respective basal and 55.57 % of respective basal and 113.09 % of respective basal"}, {"measurement": "5-HT in dialysate, MEAN", "setting": "T4 h-T4 h 30", "result": "97.87 % of respective basal"}, {"measurement": "5-HT in dialysate, individual animals", "setting": "T4 h-T4 h 30", "result": "128.06 % of respective basal and 25.07 % of respective basal and 73.75 % of respective basal and 50.85 % of respective basal and 85.54 % of respective basal and 261.90 % of respective basal and 76.87 % of respective basal and 80.93 % of respective basal"}, {"measurement": "5-HT in dialysate, MEAN", "setting": "T5 h 30-T6 h", "result": "75.87 % of respective basal"}, {"measurement": "5-HT in dialysate, individual animals", "setting": "T5 h 30-T6 h", "result": "78.66 % of respective basal and 7.95 % of respective basal and 69.20 % of respective basal and 42.04 % of respective basal and 72.98 % of respective basal and 142.95 % of respective basal and 74.38 % of respective basal and 118.79 % of respective basal"}, {"measurement": "5-HT in dialysate, MEAN", "setting": "T5 h-T5 h 30", "result": "92.05 % of respective basal"}, {"measurement": "5-HT in dialysate, individual animals", "setting": "T5 h-T5 h 30", "result": "77.74 % of respective basal and 11.81 % of respective basal and 73.01 % of respective basal and 50.89 % of respective basal and 87.24 % of respective basal and 227.76 % of respective basal and 54.20 % of respective basal and 153.73 % of respective basal"}, {"measurement": "5-HT in dialysate, MEAN", "setting": "T6 h 30-T7 h", "result": "76.63 % of respective basal"}, {"measurement": "5-HT in dialysate, individual animals", "setting": "T6 h 30-T7 h", "result": "87.93 % of respective basal and 11.23 % of respective basal and 60.60 % of respective basal and 41.05 % of respective basal"}, {"measurement": "5-HT in dialysate, MEAN", "setting": "T6 h-T6 h 30", "result": "79.25 % of respective basal"}, {"measurement": "5-HT in dialysate, individual animals", "setting": "T6 h-T6 h 30", "result": "70.23 % of respective basal and 12.51 % of respective basal and 74.22 % of respective basal and 42.28 % of respective basal and 81.01 % of respective basal and 173.04 % of respective basal and 63.01 % of respective basal and 117.68 % of respective basal"}, {"measurement": "5-HT in dialysate, MEAN", "setting": "T-30 min-T0 (pre-dose)", "result": "87.59 % of respective basal"}, {"measurement": "5-HT in dialysate, MEAN", "setting": "T-1 h 30-T-1 h (pre-dose)", "result": "108.45 % of respective basal"}, {"measurement": "5-HT in dialysate, MEAN", "setting": "T-1 h-T-30 min (pre-dose)", "result": "105.84 % of respective basal"}, {"measurement": "5-HT concentrations in prefrontal cortex, significant increase", "setting": "citalopram 10 mg/kg IP, from 1 h to 2 h", "result": 219, "unit": "%"}, {"measurement": "5-HT release, maximum increase observed", "setting": "citalopram 10 mg/kg, at 1 h", "result": 218, "unit": "%"}]}]}
